The conditions of data set [1]: background art; cited from earlier work.
The next data set concerns cellular immunity. As to conditions: background art; cited from earlier work.
Data set [2] concerns influenza HA vaccine (A/PR/8/34 strain). Further details: species or system BALB/c mice. Particulars: mouse, in vivo.
A further data set has as its system sheep erythrocytes. Nature of the data set: Hemolytic test for active saponins (Example 6). It counts as cell-based. Particulars: 30 minutes at room temperature, solutions 3.125 to 200 µg/ml in PBS, E and F judged at a final concentration of 200 µg/ml. Here is the method:
It has been known that saponins generally have the hemolytic activity. Thus, the inventive active saponins were tested for the hemolytic activity as follows. The sheep erythrocytes were washed 3 times with phosphate buffered saline (PBS), and then diluted 2.5 times with the same buffer for the subsequent experiment. Aliquots (100 µl ) of solutions of onjisaponins A, E, F, and G (200, 100, 50, 25, 6.25, 3.125 µg/ml-PBS solution) were added to V-shaped wells of a 96-well micro-plate, and 25 µl of sheep erythrocyte suspension was added to each well. The plate was allowed to stand still at room temperature for 30 minutes. Then, the samples were centrifuged at 1000 rpm for 5 minutes. An aliquot (50 µl) of the resulting supernatant was transferred to a flat-bottomed well of a plate and the absorbance thereof was measured at 490 nm in a micro-plate reader (Model 450, BioRad Co.). The hemolytic activity of test compound was evaluated based on the increase in absorbance at 490 nm, which results from the release of hemoglobin from sheep erythrocytes.

The test system of data set [3] is pertussis-diphtheria-tetanus combined vaccine. Further details: species or system BALB/c mice. Particulars: mouse, in vivo.
Data set [4] has the same test system. Further details: species or system BALB/c mice. Particulars: mouse, in vivo. This is another data set of the same source.
The subject of data set [5] is influenza HA vaccine (A/Beijing/262/95 strain). The class given is in vivo, BALB/c mice.
For data set [6] the test system is unchanged. Further details: species or system BALB/c mice. Particulars: mouse, in vivo.

Entries after “also recorded” stand apart in the source; their conditions may differ.

As for QS-21, in data set [1], the solubility result was “too low”. In the data set with cellular immunity, the “induction of cellular immunity” value is “strongly induces the cellular immunity”.

For the substance onjisaponin A, in data set [2], the “anti-HA-IgA and IgG antibody titers in the nasal irrigation liquid compared with the group given vaccine in combination with CTB” value is on record as “comparable”; the “anti-HA-IgA antibody titer in the nasal irrigation liquid” value (“anti-HA-IgA antibody titer” for short) is on record as “increased to the highest level”; the “anti-HA-IgG antibody titer in the nasal irrigation liquid” value (“anti-HA-IgG antibody titer” for short) is on record as “increased to the highest level”. In the data set with sheep erythrocytes, the “hemolytic activity (release of hemoglobin, absorbance at 490 nm)” value (“hemolytic activity” for short) was “not acceptable; also recorded: hemolysis clearly occurred”. Besides, in data set [3], the “titer of anti-DT-IgA antibody in the nasal irrigation liquid” value (“titer of anti-DT-IgA antibody” below) was “increased to highest levels”; the “titer of anti-PT-IgA antibody in the nasal irrigation liquid” value is on record as “increased to highest levels”; the “titer of anti-TT-IgA antibody in the nasal irrigation liquid” value (shortened to “titer of anti-TT-IgA antibody”) was “increased to highest levels”; the “titers of anti-PT-IgA, anti-DT-IgA and anti-TT-IgA antibodies in the nasal irrigation liquid compared with the group given vaccine and CTB” value is on record as “comparable”. In data set [4], the “titer of anti-DT-IgG antibody in the serum” value (“titer of anti-DT-IgG antibody” for short) was “increased to highest levels”; the “titer of anti-PT-IgG antibody in the serum” value (“titer of anti-PT-IgG antibody” below) was “increased to highest levels”; the “titer of anti-TT-IgG antibody in the serum” value (shortened to “titer of anti-TT-IgG antibody”) is reported as “increased to highest levels”; the “titers of anti-PT-IgG, anti-DT-IgG and anti-TT-IgG antibodies in the serum compared with the group given vaccine and CTB” value is recorded as “comparable”.

As for onjisaponin E, in data set [2], the “anti-HA-IgA antibody titer” value is “increased only the production of anti-HA-IgA to a statistically significant level” and the “anti-HA-IgG antibody titer” value is reported as “increased only the production of anti-HA-IgA”. For the same substance, in the data set on sheep erythrocytes, the “hemolytic activity” value is “substantially no hemolytic activity; also recorded: low hemolytic activity; also recorded: hardly recognized”.

Turning to onjisaponin F, in data set [2], the “anti-HA-IgA antibody titer” value was “increased the production” and the “anti-HA-IgG antibody titer” value is “increased the production”. Also, the “hemolytic activity” value in the data set with sheep erythrocytes was “substantially no hemolytic activity; also recorded: low hemolytic activity; also recorded: hardly recognized”. In data set [3], the “titer of anti-DT-IgA antibody” value is reported as “increased to highest levels”; the “titer of anti-PT-IgA antibody in the nasal irrigation liquid” value is recorded as “increased to highest levels”; the “titer of anti-TT-IgA antibody” value is reported as “increased to highest levels”; the “titers of anti-PT-IgA, anti-DT-IgA and anti-TT-IgA antibodies in the nasal irrigation liquid compared with the group given vaccine and CTB” value is “comparable”. For the same substance, the “adjuvant activity of enhancing the titer of anti-HA-IgA antibody compared with the same amount of CTB” value in data set [5] (mouse, in vivo) is “lower”. Moreover, in data set [5] (secondary response, […]), the “anti-HA-IgA antibody titer” value is “significantly increased” and the “anti-HA-IgG antibody titer” value is on record as “significantly increased”. In data set [6], the “HI antibody titer in the serum compared with HA vaccine alone” value was “significantly increased” and the “adjuvant activity (serum HI antibody titer) compared with the same amount of CTB” value was “slightly weaker”. In data set [4], the “titer of anti-DT-IgG antibody” value was “also elevated”, the “titer of anti-PT-IgG antibody” value is listed as “also elevated” and the “titer of anti-TT-IgG antibody” value was “also elevated”.

For the substance onjisaponin G, in data set [2], the “anti-HA-IgA antibody titer” value was “increased only the production of anti-HA-IgA to a statistically significant level” and the “anti-HA-IgG antibody titer” value is listed as “increased only the production of anti-HA-IgA”. In addition, the “hemolytic activity” value in the data set with sheep erythrocytes is “low hemolytic activity; also recorded: moderate degree of hemolysis”. Further, in data set [3], the “titer of anti-DT-IgA antibody” value was “also elevated” and the “titer of anti-TT-IgA antibody” value is recorded as “also elevated”. Further, in data set [4], the “titer of anti-DT-IgG antibody” value is “increased only anti-TT-IgG antibody titer”, the “titer of anti-PT-IgG antibody” value was “increased only anti-TT-IgG antibody titer” and the “titer of anti-TT-IgG antibody” value was “increased only anti-TT-IgG antibody titer to a statistically significant level”.

Source of the values: EP1121937A1, “VACCINE PR[…]” (THE KITASATO INSTITUTE, priority 1998, dated 2000).
